Tests used:
clinical [1] = conditions: human, in vivo, iv, t1/2
clinical [2] = conditions: human, in vivo, iv, CL
clinical [3] = conditions: human, in vivo, iv, Vdss
clinical [4] = conditions: human, in vivo, iv

## Nc1ncnc2c1ncn2CCOCP(=O)(O)O [ADEFOVIR]
Clinical [1]
  half-life: 1.6 h
Clinical [2]
  clearance: 3.7 mL/min/kg
Clinical [3]
  Vd: 0.42 L/kg
Clinical [4]
  MRT: 1.9 h

## CCCCCNC(=N)N/N=C/c1c[nH]c2ccc(OC)cc12 [TEGASEROD]
Clinical [1]
  half-life: 11 h
Clinical [2]
  clearance: 18 mL/min/kg
Clinical [3]
  Vd: 5.3 L/kg
Clinical [4]
  MRT: 4.9 h

## CC(C)NCC(O)COc1ccc(CCOCC2CC2)cc1 (stereo not drawn) [BETAXOLOL]
Clinical [1]
  half-life: 17 h
Clinical [2]
  clearance: 3.4 mL/min/kg
Clinical [3]
  Vd: 4.8 L/kg
Clinical [4]
  MRT: 24 h

## N[C@@H](C(=O)N[C@@H]1C(=O)N2C(C(=O)O)=C(CSc3c[nH]nn3)CS[C@H]12)c1ccc(O)cc1 [CEFATRIZINE]
Clinical [1]
  half-life: 1.2 h
Clinical [2]
  clearance: 3.3 mL/min/kg
Clinical [3]
  Vd: 0.22 L/kg
Clinical [4]
  MRT: 1.1 h

## CC1(C)S[C@@H]2[C@H](/N=C/N3CCCCCC3)C(=O)N2[C@H]1C(=O)O [AMDINOCILLIN]
Clinical [1]
  half-life: 1.1 h
Clinical [2]
  clearance: 6.3 mL/min/kg
Clinical [3]
  Vd: 0.37 L/kg
Clinical [4]
  MRT: 1 h

## C=CC[N+]12CC[C@@]34c5ccccc5N5/C=C6/[C@H]7C[C@H]8[C@@]9(CC[N@@+]8(CC=C)C/C7=C/CO)c7ccccc7N(/C=C(/[C@@H](C[C@@H]31)/C(=C\CO)C2)[C@H]54)[C@@H]69 (stereo partly drawn)
Clinical [1]
  half-life: 3.6 h
Clinical [2]
  clearance: 1.3 mL/min/kg
Clinical [3]
  Vd: 0.32 L/kg
Clinical [4]
  MRT: 4.1 h

## CC[C@]1(O)C[C@@H]2CN(CCc3c([nH]c4ccccc34)[C@@](C(=O)OC)(c3cc4c(cc3OC)N(C)[C@H]3[C@@](O)(C(N)=O)[C@H](O)[C@]5(CC)C=CCN6CC[C@]43[C@@H]65)C2)C1 [VINDESINE]
Clinical [1]
  half-life: 35 h
Clinical [2]
  clearance: 2.2 mL/min/kg
Clinical [3]
  Vd: 5 L/kg
Clinical [4]
  MRT: 38 h

## CN(CC(N)=O)C(=O)N(CCCl)N=O [SARCNU]
Clinical [1]
  half-life: 1 h
Clinical [2]
  clearance: 9 mL/min/kg
Clinical [3]
  Vd: 0.76 L/kg
Clinical [4]
  MRT: 1.4 h

## CC(C)(C)[C@H](NC(=O)[C@H](CC1CCCC1)CN(O)C=O)C(=O)N1CCN(Cc2ccc3c(c2)OCO3)CC1
Clinical [1]
  half-life: 9.4 h
Clinical [2]
  clearance: 3.1 mL/min/kg
Clinical [3]
  Vd: 1.1 L/kg
Clinical [4]
  MRT: 5.9 h

## CC1(C)S[C@@H]2[C@H](NC(=O)C(C(=O)O)c3ccccc3)C(=O)N2[C@H]1C(=O)O (stereo partly drawn) [CARBENICILLIN]
Clinical [1]
  half-life: 1.1 h
Clinical [2]
  clearance: 1.9 mL/min/kg
Clinical [3]
  Vd: 0.17 L/kg
Clinical [4]
  MRT: 1.5 h

## c1ccc(C2(N3CCCCC3)CCCCC2)cc1 [PHENCYCLIDINE]
Clinical [1]
  half-life: 16 h
Clinical [2]
  clearance: 5.1 mL/min/kg
Clinical [3]
  Vd: 6.9 L/kg
Clinical [4]
  MRT: 23 h

## CO[C@H]1C[C@@H]2CC[C@@H](C)[C@@](O)(O2)C(=O)C(=O)N2CCCC[C@H]2C(=O)O[C@H]([C@H](C)C[C@@H]2CC[C@H](n3cnnn3)[C@H](OC)C2)CC(=O)[C@H](C)/C=C(\C)[C@@H](O)[C@@H](OC)C(=O)[C@H](C)C[C@H](C)/C=C/C=C/C=C/1C [ZOTAROLIMUS]
Clinical [1]
  half-life: 35 h
Clinical [2]
  clearance: 0.67 mL/min/kg
Clinical [3]
  Vd: 1.3 L/kg
Clinical [4]
  MRT: 33 h

## CC(C(=O)O)c1ccc(C(=O)c2cccs2)cc1 (stereo not drawn) [SUPROFEN]
Clinical [1]
  half-life: 2.1 h
Clinical [2]
  clearance: 0.76 mL/min/kg
Clinical [3]
  Vd: 0.04 L/kg
Clinical [4]
  MRT: 0.88 h

## CC(CCc1ccc2c(c1)OCO2)NCC(O)c1ccc(O)c(C(N)=O)c1 (stereo not drawn) [MEDROXALOL]
Clinical [1]
  half-life: 11 h
Clinical [2]
  clearance: 16 mL/min/kg
Clinical [3]
  Vd: 7.9 L/kg
Clinical [4]
  MRT: 8.2 h

## O=C(O)CCCc1ccc(N(CCCl)CCCl)cc1 [CHLORAMBUCIL]
Clinical [1]
  half-life: 1.1 h
Clinical [2]
  clearance: 2.8 mL/min/kg
Clinical [3]
  Vd: 0.26 L/kg
Clinical [4]
  MRT: 1.5 h

## CN(C)CCC=C1c2ccccc2COc2ccccc21 [DOXEPIN]
Clinical [1]
  half-life: 15 h
Clinical [2]
  clearance: 14 mL/min/kg
Clinical [3]
  Vd: 12 L/kg
Clinical [4]
  MRT: 15 h

## CN(C)/N=N/c1ccc(C(=O)O)cc1
Clinical [1]
  half-life: 2.5 h
Clinical [2]
  clearance: 1.3 mL/min/kg
Clinical [3]
  Vd: 0.25 L/kg
Clinical [4]
  MRT: 3 h

## CC(C)(O)c1ccccc1CC[C@@H](SCC1(CC(=O)O)CC1)c1cccc(/C=C/c2ccc3ccc(Cl)cc3n2)c1 [MONTELUKAST]
Clinical [1]
  half-life: 5 h
Clinical [2]
  clearance: 0.68 mL/min/kg
Clinical [3]
  Vd: 0.15 L/kg
Clinical [4]
  MRT: 3.8 h

## CC[C@]1(O)C[C@H]2CN(CCc3c([nH]c4ccccc34)[C@@](C(=O)OC)(c3cc4c(cc3OC)N(C=O)[C@H]3[C@@](O)(C(=O)OC)[C@H](OC(C)=O)[C@]5(CC)C=CCN6CC[C@]43[C@@H]65)C2)C1 [VINCRISTINE]
Clinical [1]
  half-life: 23 h
Clinical [2]
  clearance: 2 mL/min/kg
Clinical [3]
  Vd: 2.4 L/kg
Clinical [4]
  MRT: 20 h

## C[C@H]1O[C@H](O[C@H]2[C@H](O)[C@@H](O)[C@@H](O[C@H]3[C@H](O)[C@@H](O)C(O)O[C@@H]3CO)O[C@@H]2CO)[C@H](O)[C@@H](O)[C@@H]1N[C@H]1C=C(CO)[C@@H](O)[C@H](O)[C@H]1O (stereo partly drawn) [ACARBOSE]
Clinical [1]
  half-life: 2.7 h
Clinical [2]
  clearance: 2.2 mL/min/kg
Clinical [3]
  Vd: 0.32 L/kg
Clinical [4]
  MRT: 2.4 h

## C[C@H]([C@](O)(Cn1cncn1)c1ccc(F)cc1F)S(C)(=O)=O [GENACONAZOLE]
Clinical [1]
  half-life: 49 h
Clinical [2]
  clearance: 0.19 mL/min/kg
Clinical [3]
  Vd: 0.62 L/kg
Clinical [4]
  MRT: 54 h

## CN[C@@H]1CCc2[nH]c3ccc(C(N)=O)cc3c2C1 [FROVATRIPTAN]
Clinical [1]
  half-life: 24 h
Clinical [2]
  clearance: 2.5 mL/min/kg
Clinical [3]
  Vd: 3.6 L/kg
Clinical [4]
  MRT: 22 h

## CC1(C)S[C@@H]2[C@H](NC(=O)COc3ccccc3)C(=O)N2[C@H]1C(=O)O [PENICILLIN V]
Clinical [1]
  half-life: 0.84 h
Clinical [2]
  clearance: 6.8 mL/min/kg
Clinical [3]
  Vd: 0.41 L/kg
Clinical [4]
  MRT: 1 h

## C=C(CC)C(=O)c1ccc(OCC(=O)O)c(Cl)c1Cl [ETHACRYNIC ACID]
Clinical [1]
  half-life: 0.5 h
Clinical [2]
  clearance: 8.73 mL/min/kg
Clinical [3]
  Vd: 0.26 L/kg
Clinical [4]
  MRT: 0.5 h

## CCCCNc1cc(C(=O)O)cc(S(N)(=O)=O)c1Oc1ccccc1 [BUMETANIDE]
Clinical [1]
  half-life: 1.2 h
Clinical [2]
  clearance: 2.5 mL/min/kg
Clinical [3]
  Vd: 0.16 L/kg
Clinical [4]
  MRT: 1.1 h

## NC[C@H]1O[C@H](O[C@H]2[C@H](O[C@@H]3O[C@H](CO)[C@@H](O)[C@H]3O)[C@@H](O)[C@H](N)C[C@@H]2N)[C@H](N)[C@@H](O)[C@@H]1O [RIBOSTAMYCIN]
Clinical [1]
  half-life: 2.5 h
Clinical [2]
  clearance: 1.5 mL/min/kg
Clinical [3]
  Vd: 0.25 L/kg
Clinical [4]
  MRT: 2.8 h

## CCN(CC)CCNC(=O)c1ccc(NS(C)(=O)=O)cc1 [SEMATILIDE]
Clinical [1]
  half-life: 3.8 h
Clinical [2]
  clearance: 3.7 mL/min/kg
Clinical [3]
  Vd: 0.82 L/kg
Clinical [4]
  MRT: 3.7 h

## C[C@H]1COc2c(N3CCN(C)CC3)c(F)cc3c(=O)c(C(=O)O)cn1c23.C[C@H]1COc2c(N3CCN(C)CC3)c(F)cc3c(=O)c(C(=O)O)cn1c23.O [LEVOFLOXACIN]
Clinical [1]
  half-life: 8.8 h
Clinical [2]
  clearance: 1.9 mL/min/kg
Clinical [3]
  Vd: 1.2 L/kg
Clinical [4]
  MRT: 11 h

## C[C@H]1O[C@@H](n2cc(F)c(=O)[nH]c2=O)[C@H](O)[C@@H]1O [DOXIFLURIDINE]
Clinical [1]
  half-life: 0.35 h
Clinical [2]
  clearance: 11 mL/min/kg
Clinical [3]
  Vd: 0.28 L/kg
Clinical [4]
  MRT: 0.46 h

## NC[C@H]1CC[C@H](C(=O)O)CC1 [TRANEXAMIC ACID]
Clinical [1]
  half-life: 2.3 h
Clinical [2]
  clearance: 2.4 mL/min/kg
Clinical [3]
  Vd: 0.38 L/kg
Clinical [4]
  MRT: 2.6 h

## O=C(O)Cn1c(=O)c(=O)[nH]c2cc([N+](=O)[O-])c(-n3ccnc3)cc21 [ZONAMPANEL]
Clinical [1]
  half-life: 0.78 h
Clinical [2]
  clearance: 5.3 mL/min/kg
Clinical [3]
  Vd: 0.19 L/kg
Clinical [4]
  MRT: 0.6 h

## CCN(CC)CCNC(=O)c1cc(Cl)c(N)cc1OC [METOCLOPRAMIDE]
Clinical [1]
  half-life: 7.2 h
Clinical [2]
  clearance: 5.7 mL/min/kg
Clinical [3]
  Vd: 3.2 L/kg
Clinical [4]
  MRT: 9.4 h

## Cc1nccn1CC1CCc2c(c3ccccc3n2C)C1=O (stereo not drawn) [ONDANSETRON]
Clinical [1]
  half-life: 3.4 h
Clinical [2]
  clearance: 5.8 mL/min/kg
Clinical [3]
  Vd: 1.8 L/kg
Clinical [4]
  MRT: 5.2 h

## COc1ccc(Cc2nccc3cc(OC)c(OC)cc23)cc1OC [PAPAVERINE]
Clinical [1]
  half-life: 1.8 h
Clinical [2]
  clearance: 11 mL/min/kg
Clinical [3]
  Vd: 0.95 L/kg
Clinical [4]
  MRT: 1.4 h

## N#Cc1ccc2c(c1)CN(S(=O)(=O)c1cccs1)[C@H](Cc1ccccc1)CN2Cc1cnc[nH]1 [BMS-214662]
Clinical [1]
  half-life: 1.6 h
Clinical [2]
  clearance: 9.6 mL/min/kg
Clinical [3]
  Vd: 0.84 L/kg
Clinical [4]
  MRT: 1.4 h

## NC[C@H]1O[C@H](O[C@H]2[C@H](O)[C@@H](O[C@H]3O[C@H](CO)[C@@H](O)[C@H](N)[C@H]3O)[C@H](N)C[C@@H]2N)[C@H](O)[C@@H](O)[C@@H]1O [KANAMYCIN]
Clinical [1]
  half-life: 2.1 h
Clinical [2]
  clearance: 1.4 mL/min/kg
Clinical [3]
  Vd: 0.26 L/kg
Clinical [4]
  MRT: 3.1 h

## Clc1ccc2nsnc2c1NC1=NCCN1 [TIZANIDINE]
Clinical [1]
  half-life: 2.4 h
Clinical [2]
  clearance: 11 mL/min/kg
Clinical [3]
  Vd: 2.4 L/kg
Clinical [4]
  MRT: 3.6 h

From ChEMBL document CHEMBL1614632, “Trend analysis of a database of intravenous pharmacokinetic parameters in humans for 670 drug compounds” (Drug Metab Dispos, 2008)
